Measurements from ChEMBL document CHEMBL4052656, “The synthesis and evaluation of triazolopyrimidines as anti-tubercular agents” (Bioorg Med Chem, 2017).
Activity calls are given as the source filed them. The calls are words filed in the database; no cut-off is given here.

Columns and labels:
[1] = system: Mycobacterium tuberculosis; experiment: Bacteriostatic activity against replicating Mycobacterium tuberculosis H37Rv by agar dilution method; type: functional
[2] = system: Mycobacterium tuberculosis; experiment: Bactericidal activity against replicating Mycobacterium tuberculosis H37Rv after 21 days by agar dilution method; type: functional
[3] = Selectivity index, ratio of IC50 for human HepG2 cells to MIC90 for Mycobacterium tuberculosis H37Rv; type: toxicity; settings: read-out: Selectivity Index

| Compound | Activity [1] | Activity [2] | selectivity ratio [3] |
| --- | --- | --- | --- |
| FC(F)(F)Oc1ccc(CCNc2cc(-c3ccccc3)nc3ncnn23)cc1 | Active | inactive | – |
| COc1ccc(CC(=O)Nc2cc(-c3ccccc3)nc3ncnn23)cc1 | Active | inactive | – |
| COc1ccc(CCNc2cc(-c3ccccn3)nc3ncnn23)cc1 | Active | inactive | – |
| COc1ccc(CCNc2cc(-c3ccc(F)cc3)nc3ncnn23)cc1 | – | – | > 21 |
